Experiments:
Type in all cases: cell-based
[1] = test system: human foreskin fibroblasts; assay: Luciferase activity after lipofection (RNAiMAX) of IVT RNA; conditions: increasing concentrations
Method: 1.2 μg 5′-triphosphorylated and non-modified IVT RNA (0.8 μg encoding luciferase, 0.4 μg GFP) was packaged with 6 μl RNAiMAX transfection reagent (Invitrogen) and transfected into human foreskin fibroblasts and the medium supplemented with increasing concentrations of C13H8N4OS. At the indicated time points the cells were lysed and luciferase activity of the lysates was measured. […] This effect was dose-dependent.
To study whether C13H8N4OS could also enhance translation upon liposomal IVT RNA transfer, 1.2 μg 5′-triphosphorylated and non-modified IVT RNA (0.8 μg encoding luciferase, 0.4 μg GFP) was packaged with 6 μl RNAiMAX transfection reagent (Invitrogen) and transfected into human foreskin fibroblasts. After 3 h incubation with the transfection mixture, the medium was renewed and supplemented with increasing concentrations of C13H8N4OS. At the time points indicated in FIG. 15 the cells were lysed using luciferase stabilizing passive lysis buffer (Promega) according to the manufacturer's instructions. By the end of the time course, luciferase activity of all lysates was measured. […] This effect was dose-dependent. One of three independently performed experiments is shown. Thus, the effect of C13H8N4OS on translation of IVT RNA is not restricted to the delivery via electroporation. […]

[2] = test system: Primary human foreskin fibroblasts (BJ, CCD1079Sk); assay: Intracellular FACS staining of reprogramming transcription factors after IVT RNA transfer
Method: (AB) Primary human foreskin fibroblasts from different donors and suppliers (panel A: BJ fibroblasts; panel B: CCD1079Sk) and (C) MEFs were electroporated with 0.5 μg IVT RNA encoding for firefly luciferase and 1.25 μg IVT RNA encoding for eGFP and 2.5 μg of IVT RNA encoding for each of the individual reprogramming factors OCT4, SOX2, KLF4 and c-MYC. Electroporations were performed in 2 mm gap cuvettes using optimized parameters for each cell type. The cells were plated into 6-well-plates at a density of 250000 cells/well. The cells were either left untreated or incubated with increasing amounts of C13H8N4OS (PKR-inhibitor) ranging from 0.5 μM to 2 μM as indicated in the panel legend. The OCT4 expression was detected by intracellular staining with a fluorescently labeled antibody and measured by flow cytometry at the indicated time points. The mean fluorescence intensity (MFI) of the transfected OCT4-positive cell fractions is shown. (D) CCD1079Sk fibroblasts were electroporated with IVT RNA as in B and treated for 24 h or 48 h with 2 μM C13H8N4OS. 72 h post electroporation the cells were harvested and intracellular staining with fluorescent labeled antibodies reactive against the indicated transcription factors were performed. The MFI of the transcription factor-positive cell fractions are shown.
Intracellular FACS staining of OCT4, SOX2 and NANOG was done using the human pluripotent stem cell transcription factor analysis kit following the manufacturer's instructions (BD Bioscience). Briefly, 3-5×10^5 cells were harvested, washed twice with PBS and fixed for 20 min in 250 μl BD Cytofix Buffer (BD Biosciences) at room temperature. After the incubation cells were washed twice with PBS and permeabilized by washing twice with 1× Perm/Wash Buffer (BD Bioscience) followed by 10 minutes incubation in 50 μl 1× Perm/Wash at room temperature. […] Cells were resuspended in PBS supplemented with 2% formaldehyde and analyzed by flow cytometry as described above. […]

[3] = test system: Human primary CD4 and CD8 positive T-cells; conditions: 0.5 μM to 2 μM
[4] = test system: murine embryonic fibroblasts (MEFs); assay: Luciferase reporter gene assay in murine fibroblasts electroporated with IVT RNA; conditions: 0.5 μM to 2 μM, mouse fibroblasts, after electroporation
Method: (A-C) Primary human foreskin fibroblasts from different donors and suppliers (panel A: BJ fibroblasts; panel B CCD1079Sk; panel C: HFF) and (D) murine embryonic fibroblasts (MEFs) were electroporated with 0.5 μg IVT RNA encoding for firefly luciferase and 1.25 μg IVT RNA encoding for enhanced GFP (eGFP). The cells were plated in duplicates into 96-well-plates at a density of 30000 cells/well. The cells were either left untreated or incubated with increasing amounts of C13H8N4OS (PKR-inhibitor) ranging from 0.5 μM to 2 μM as indicated in the panel legends. Luciferase activity was measured at the indicated time points. Mean values of the duplicates are given.
Transfer of IVT-RNA into cells was performed by electroporation (EP). To this end, 1-10×10^7 cells per EP were harvested, washed sequentially with PBS supplemented with 2 mM EDTA and X-VIVO 15 medium (Lonza), resuspended in 125 μl X-VIVO 15 medium and transferred to a 2-mm gap sterile electroporation cuvette (Bio-RAD, Hercules, Calif., USA). […]
For luciferase assays, cells electroporated with in vitro transcribed RNA coding for luciferase were plated in 96-well white flat-bottom microplates (Nunc, Langenselbold, Germany) and incubated at 37° C. […] Bioluminescence flux was measured with the Infinite M200 microplate luminescence reader (Tecan, Crailsheim, Germany) with 1 s integration time. […]

[5] = 2 μM for 24 h or 48 h, 72 h post electroporation

## O=C1Nc2ccc3ncsc3c2/C1=C/c1c[nH]cn1 [C13H8N4OS, 6,8-dihydro-8-(1H-imidazol-5-ylmethylene)-7H-pyrrolo[2,3-g]benzothiazol-7-one]
[1]
  dose dependence of the effect on translation of luciferase: dose-dependent
  translation of luciferase after liposomal IVT RNA transfer: stabilizing effect on translation of luciferase
[2]; 0.5 μM to 2 μM permanently or 2 μM for 24 h or 48 h
  OCT4 expression (MFI): strongly increased and stabilized
[2]; [5]
  Nanog expression (MFI): strongly increased and stabilized
  SOX2 expression (MFI): strongly increased and stabilized
[3]
  GFP expression (MFI): Neither in T-cells nor in iDCs PKR inhibition led to an increased GFP expression
[4]
  luciferase expression: dose dependent increase
